Columns and labels:
[1] = Standard sweetness test, panelists rate sweetness (Brix) of solutions in water; design: species or system human; conditions: for Brix (average): average of all panelists
Experimental: (§1) A standard sweetness test method was employed. Briefly, training sample solutions made of sucrose in water at 1-5% concentration (Brix) at 1% increments were prepared. Reb-E test samples were made of Reb-E in water at 20-60 ppm (parts per million). Panelists were trained to recognize and differentiate between each training solution. Three test solutions of known sucrose concentrations were given to panelists to ensure equal training and to establish a baseline.
(§2) Test solutions were randomized using a random number generator. Two sets of tests were generated for each panelist. Saltine crackers were provided along with water for wash out between test solutions. Each panelist rated each of the solutions according to sweetness (in Brix) and sourness (yes or no). The intensity of each attribute was also collected.

[2] = Sourness test, panelists detect presence of sourness by yes or no rating; design: species or system human
Experimental: as §1, §2
The ability of Reb-E to overcome sourness was also measured, and compared to sucrose. Panelists were asked to detect the presence of sourness by a yes or no rating.

[3] = Reb-E 20 PPM + 0.6% citric acid
[4] = Reb-E 40 PPM + 0.6% citric acid
[5] = Reb-E 50 PPM + 0.6% citric acid
[6] = Reb-E 60 PPM + 0.6% citric acid
[7] = sucrose 10 ×1000 PPM (1%) + 0.6% citric acid
[8] = sucrose 20 ×1000 PPM (2%) + 0.6% citric acid
[9] = sucrose 30 ×1000 PPM (3%) + 0.6% citric acid
[10] = sucrose 40 ×1000 PPM (4%) + 0.6% citric acid

C=C1C[C@@]23CCC4[C@](C)(C(=O)OC5OC(CO)C(O)C(O)C5OC5OC(CO)C(O)C(O)C5O)CCC[C@@]4(C)[C@@H]2CCC1(OC1OC(CO)C(O)C(O)C1OC1OC(CO)C(O)C(O)C1O)C3 (stereo partly drawn) [Reb-E, 13-[(2-O-β-D-glucopyranosyl-β-D-glucopyranosyl)oxy] ent-kaur-16-en-19-oic acid-(2-O-β-D-glucopyranosyl-β-D-glucopyranosyl) ester]
Correlation between sweetness and concentration (FIG. 1) ([1]; Reb-E 20-60 ppm): near linear correlation | Brix (average) ([1]; Reb-E 20 PPM in water + 0.6% citric acid): 1.2 Brix | Brix (average) ([1]; Reb-E 40 PPM in water + 0.6% citric acid): 2.1 Brix | Brix (average) ([1]; Reb-E 50 PPM in water + 0.6% citric acid): 2.2 Brix | Brix (average) ([1]; Reb-E 60 PPM in water + 0.6% citric acid): 2.6 Brix | Sourness detected: No (number of ratings) [2, 3]: 2 | Sourness detected: Yes (number of ratings) [2, 3]: 10 | Sourness detected: No (number of ratings) [2, 4]: 2 | Sourness detected: Yes (number of ratings) [2, 4]: 4 | Sourness detected: No (number of ratings) [2, 5]: 1 | Sourness detected: Yes (number of ratings) [2, 5]: 11 | Sourness detected: No (number of ratings) [2, 6]: 0 | Sourness detected: Yes (number of ratings) [2, 6]: 6 | Effectiveness in covering the sourness compared to sucrose solutions ([2]; within the tested range): not as effective in covering the sourness as compared to sucrose solutions

OC[C@H]1O[C@@](CO)(O[C@H]2O[C@H](CO)[C@@H](O)[C@H](O)[C@H]2O)[C@@H](O)[C@@H]1O [Sucrose, sucrose, reference compound]
Brix (average) ([1]; sucrose 10 ×1000 PPM (1%) in water + 0.6% citric acid): 1.3 Brix | Brix (average) ([1]; sucrose 20 ×1000 PPM (2%) in water + 0.6% citric acid): 2.6 Brix | Brix (average) ([1]; sucrose 30 ×1000 PPM (3%) in water + 0.6% citric acid): 3.4 Brix | Brix (average) ([1]; sucrose 40 ×1000 PPM (4%) in water + 0.6% citric acid): 5.2 Brix | Sourness detected: No (number of ratings) [2, 7]: 4 | Sourness detected: Yes (number of ratings) [2, 7]: 8 | Sourness detected: No (number of ratings) [2, 8]: 2 | Sourness detected: Yes (number of ratings) [2, 8]: 4 | Sourness detected: No (number of ratings) [2, 9]: 5 | Sourness detected: Yes (number of ratings) [2, 9]: 1 | Sourness detected: No (number of ratings) [2, 10]: 2 | Sourness detected: Yes (number of ratings) [2, 10]: 4

From US11911497B2, “Rebaudioside E and food products sweetened with rebaudioside E” (Conagen Inc., priority 2013, dated 2024)
